Our source for the IC50 values is the Kinase Knowledgebase extract (Sharma et al. 2016).

Chain of EGFR (human) (P00533 whole entry, looked up): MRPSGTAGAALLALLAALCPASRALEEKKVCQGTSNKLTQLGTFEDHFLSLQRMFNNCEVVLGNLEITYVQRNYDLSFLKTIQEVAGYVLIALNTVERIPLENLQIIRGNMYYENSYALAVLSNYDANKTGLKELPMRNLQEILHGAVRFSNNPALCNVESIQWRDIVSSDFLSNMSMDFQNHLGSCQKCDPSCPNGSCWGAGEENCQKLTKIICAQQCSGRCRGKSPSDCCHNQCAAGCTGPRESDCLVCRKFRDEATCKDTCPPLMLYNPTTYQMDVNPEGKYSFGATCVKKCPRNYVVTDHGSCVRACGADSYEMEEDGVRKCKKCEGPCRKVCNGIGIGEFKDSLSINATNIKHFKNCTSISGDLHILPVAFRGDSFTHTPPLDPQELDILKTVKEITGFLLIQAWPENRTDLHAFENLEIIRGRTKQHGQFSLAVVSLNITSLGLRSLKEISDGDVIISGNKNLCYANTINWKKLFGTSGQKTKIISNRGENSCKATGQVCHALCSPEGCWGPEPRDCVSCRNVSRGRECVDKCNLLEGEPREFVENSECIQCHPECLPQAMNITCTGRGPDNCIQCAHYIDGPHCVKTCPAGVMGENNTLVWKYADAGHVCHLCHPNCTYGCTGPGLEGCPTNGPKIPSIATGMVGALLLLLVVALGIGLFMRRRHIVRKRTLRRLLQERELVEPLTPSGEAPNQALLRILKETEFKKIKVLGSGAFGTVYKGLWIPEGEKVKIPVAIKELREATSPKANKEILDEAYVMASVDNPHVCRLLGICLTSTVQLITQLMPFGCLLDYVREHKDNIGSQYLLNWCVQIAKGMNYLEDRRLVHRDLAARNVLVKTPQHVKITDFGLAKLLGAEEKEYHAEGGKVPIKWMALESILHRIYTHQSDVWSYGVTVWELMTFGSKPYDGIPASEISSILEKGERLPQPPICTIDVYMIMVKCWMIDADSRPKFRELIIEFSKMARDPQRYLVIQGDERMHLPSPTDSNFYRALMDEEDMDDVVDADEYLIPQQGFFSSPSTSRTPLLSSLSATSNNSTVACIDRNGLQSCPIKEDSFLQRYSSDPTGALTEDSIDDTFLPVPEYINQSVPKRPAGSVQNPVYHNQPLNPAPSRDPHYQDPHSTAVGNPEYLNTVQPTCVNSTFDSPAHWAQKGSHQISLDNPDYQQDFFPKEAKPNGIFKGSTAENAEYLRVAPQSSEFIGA

This assay has as its target EGFR (human) (UniProt P00533). As to conditions: hl-60.
As a reminder, the IC50 is the concentration that gives 50% inhibition. Turning to `O=C(CCCCCC(=O)Nc1ccc(O)c(C(=O)Nc2ccc(F)c(Cl)c2)c1)NO`, the IC50 is greater than 100 µM.
`O=C(CCCCCC(=O)Nc1ccc(O)c(C(=O)Nc2ccc(Cl)c(Cl)c2)c1)NO` had an IC50 greater than 100 µM.
Under `O=C(CCCCCC(=O)Nc1ccc(O)c(C(=O)Nc2ccc(Cl)c(C(F)(F)F)c2)c1)NO` stands greater than 100 µM.
For `C#Cc1cccc(NC(=O)c2cccc(NC(=O)CCCCCC(=O)NO)c2)c1` the value was greater than 100 µM; for `O=C(CCCCCC(=O)Nc1ccc(O)c(C(=O)Nc2cccc(F)c2)c1)NO`, greater than 100 µM; for `C#Cc1cccc(NC(=O)c2cc(NC(=O)CCCCCCC(=O)NO)ccc2O)c1`, greater than 100 µM.
Regarding `O=C(CCCCCC(=O)Nc1ccc(O)c(C(=O)Nc2ccc(OCc3cccc(F)c3)c(Cl)c2)c1)NO`, the IC50 is greater than 100 µM.
For `C#Cc1cccc(NC(=O)c2cc(NC(=O)CCCCCC(=O)NO)ccc2O)c1` the value was greater than 100 µM.
For `O=C(CCCCCC(=O)Nc1ccc(O)c(C(=O)Nc2ccc(F)c(F)c2)c1)NO` the value was greater than 100 µM.
Molecule `O=C(CCCCCC(=O)Nc1ccc(O)c(C(=O)Nc2cccc(C(F)(F)F)c2)c1)NO` came in with an IC50 greater than 100 µM.
